In US5098996A, “Process for introducing fluorine into biologically active materials” (The United States of America as represented by the …, priority 1988, dated 1992):
pKi: −log10 of the molar value.

Experiments:
insulin-antibody = insulin-antibody binding assay
Protocol: N^α,A1,N^ε,B29 (BOC)2 insulin, 537 mg, […], was dissolved in 500 ml DMSO. FMB-Gly-OAS, 120 mg, 390 mmole in 20 ml DMSO, and 24.5 mg, 390 mmole in 2.5 ml DMSO , and 4-ethyl morpholine, 100 mg, 870 mmole in 10 ml DMSO, were added, and the reaction was allowed to remain at rom temperature for eighteen hours. The reaction was monitored by RP-HPLC until completion. One pure product was obtained, Rt=26 minutes . The eluting solvents were A, 0.1% TFA in water; B, 0.1% TFA in acetonitrile. Elution was made from 25% B to 80% in 45 minutes. The solution was lyophilized, and 50 ml neat TFA was added for five minutes, and then evaporated. The product reacted in an insulin-antibody binding assay.

substance P receptor = target: T1, substance P receptor (Rattus norvegicus, UniProt P14600); test: competitive binding assay, substance P receptor, rat brain
T1 construct: from tissue; host or cells: rat brain (per the earlier reading)
T1 sequence (P14600 whole entry): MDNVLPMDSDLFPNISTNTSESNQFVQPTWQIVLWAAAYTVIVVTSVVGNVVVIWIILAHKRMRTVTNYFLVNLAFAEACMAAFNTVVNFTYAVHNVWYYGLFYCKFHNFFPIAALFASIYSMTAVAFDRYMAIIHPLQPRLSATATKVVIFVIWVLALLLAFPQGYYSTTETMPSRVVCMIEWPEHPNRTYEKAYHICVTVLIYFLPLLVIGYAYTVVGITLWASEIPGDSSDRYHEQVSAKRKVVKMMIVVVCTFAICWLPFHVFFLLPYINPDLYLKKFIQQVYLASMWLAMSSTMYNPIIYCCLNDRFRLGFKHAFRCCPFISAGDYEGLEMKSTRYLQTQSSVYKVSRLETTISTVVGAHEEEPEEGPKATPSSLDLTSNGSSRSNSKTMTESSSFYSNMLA

reaction in insulin-antibody binding assay (insulin-antibody) | Substance | pKi (substance P receptor)
reacted | FMB-Gly-Insulin: Insulin acylated with FMB-Gly active ester from N^α,A1,N^ε,B29 (BOC)2 insulin, then TFA deprotected | –
– | N^αFMBArgProLysProGlnGlnPhePheGlyLeuMetNH2 [Compound 29] | 9.00
